Data reported in US20150272939A1, “Identification of Small Molecule Inhibitors of Jumonji AT-Rich Interactive Domain 1A (JARID1A) and 1B (JARID1B) Histone Demethylase” (Yale University, priority 2012, published 2015).
“And” between values parts separate entries of the source, which are not always exact repeats. Identical values can stand only once. Counter-ions that a name gives are not always drawn. Like-named read-outs stand apart in the source and are kept apart here.

What was measured:
[1] = AlphaScreen counterscreen against bio-H3K4me2 peptide in the absence of enzyme (artifact signal); conditions: for Artifact signal: effect of the compound when it is incubated with bio-H3K4me2 peptide: counterscreen, no enzyme; for Artifact Signal (percent): effect of the compound when incubated with bio-H3K4me2 peptide (counterscreen, no enzyme);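 as to all read-outs here: counterscreen run without enzyme against bio-H3K4me2 peptide to remove false positive hits from the JARID1 demethylase AlphaScreen screen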
JARID1B = target: T1, JARID1B (Homo sapiens, UniProt Q9UGL1); assay: FLAG-JARID1B histone demethylase assay with AlphaScreen detection (HTS and dose response); type: biochemical; conditions: for inhibition at 20 µM / Inhibitory effect (percent): high-throughput screen, compound 20 μM; for inhibition at 20 µM: read-out: Inhibitory effect (percent); for Validation result of HTS active: effect of the compound in the JARID1B AlphaScreen demethylase assay / Assay Signal (percent): validation of HTS actives; for Validation result of HTS active: effect of the compound in the JARID1B AlphaScreen demethylase assay: total signal before subtraction of artifact signal; for Assay − Artifact Signal (percent): assay signal minus artifact signal; for Assay Signal (percent): effect of compound in JARID1B AlphaScreen assay;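 as to Assay Signal (percent): compound tested at 20 µM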;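 as to Assay − Artifact Signal (percent): compound tested at 20 µM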;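 as to all read-outs here: FLAG-tagged JARID1B at 4 nM acting on a biotinylated H3K4me3 peptide, demethylation read by AlphaScreen luminescence, with hits checked against bio-H3K4me2 without enzyme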
T1 construct: The FLAG tagged full length JARID1B enzyme was expressed in Sf21 insect cells using FLAG-JARID1B baculoviruses; FLAG (N); made in house; host or cells: Sf21 insect cells (baculovirus)

[2] = standard demethylase conditions (10 μM α-KG, 50 μM Fe (II))
[3] = IDs marked *: additional hits under reaction condition with 1 mM α-KG

T1 sequence (Q9UGL1 whole entry): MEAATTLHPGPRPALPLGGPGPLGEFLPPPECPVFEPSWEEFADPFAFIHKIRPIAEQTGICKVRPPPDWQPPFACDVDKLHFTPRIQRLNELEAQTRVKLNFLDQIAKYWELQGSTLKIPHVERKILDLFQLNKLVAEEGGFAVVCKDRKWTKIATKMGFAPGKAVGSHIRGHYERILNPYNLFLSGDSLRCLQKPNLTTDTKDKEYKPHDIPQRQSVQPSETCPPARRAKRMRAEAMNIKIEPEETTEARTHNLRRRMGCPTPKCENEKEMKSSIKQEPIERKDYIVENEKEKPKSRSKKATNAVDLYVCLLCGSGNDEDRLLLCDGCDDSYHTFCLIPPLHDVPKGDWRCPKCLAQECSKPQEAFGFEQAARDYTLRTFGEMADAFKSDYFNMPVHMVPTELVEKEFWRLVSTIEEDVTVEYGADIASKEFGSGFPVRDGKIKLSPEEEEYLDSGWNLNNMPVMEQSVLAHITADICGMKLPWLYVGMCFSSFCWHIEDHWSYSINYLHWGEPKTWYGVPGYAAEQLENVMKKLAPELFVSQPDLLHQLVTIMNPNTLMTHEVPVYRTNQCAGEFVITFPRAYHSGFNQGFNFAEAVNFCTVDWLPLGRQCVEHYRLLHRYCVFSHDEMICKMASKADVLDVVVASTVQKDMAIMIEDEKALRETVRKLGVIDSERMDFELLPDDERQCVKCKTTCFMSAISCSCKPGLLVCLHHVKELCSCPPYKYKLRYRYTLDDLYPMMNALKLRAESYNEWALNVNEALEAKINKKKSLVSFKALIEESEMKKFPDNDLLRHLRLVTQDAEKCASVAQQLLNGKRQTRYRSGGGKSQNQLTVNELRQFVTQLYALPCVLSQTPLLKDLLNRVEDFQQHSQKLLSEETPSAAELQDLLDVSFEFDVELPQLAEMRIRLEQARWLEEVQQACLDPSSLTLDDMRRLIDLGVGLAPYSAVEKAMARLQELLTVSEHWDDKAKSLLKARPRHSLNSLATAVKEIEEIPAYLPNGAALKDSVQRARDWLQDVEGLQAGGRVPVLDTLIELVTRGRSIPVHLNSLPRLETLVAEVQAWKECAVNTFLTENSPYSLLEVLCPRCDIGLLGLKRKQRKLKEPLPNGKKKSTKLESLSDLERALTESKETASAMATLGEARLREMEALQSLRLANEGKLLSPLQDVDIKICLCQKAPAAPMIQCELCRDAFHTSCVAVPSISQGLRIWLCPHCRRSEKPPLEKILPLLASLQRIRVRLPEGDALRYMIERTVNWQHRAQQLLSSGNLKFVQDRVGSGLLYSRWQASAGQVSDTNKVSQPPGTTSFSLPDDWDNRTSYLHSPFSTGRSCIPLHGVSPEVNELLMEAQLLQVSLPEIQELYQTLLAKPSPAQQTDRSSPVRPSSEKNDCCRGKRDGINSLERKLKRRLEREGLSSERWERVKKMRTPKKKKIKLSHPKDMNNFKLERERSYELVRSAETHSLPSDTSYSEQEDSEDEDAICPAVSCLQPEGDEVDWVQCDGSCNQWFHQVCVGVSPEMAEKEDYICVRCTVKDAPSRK

Row | SMILES | Artifact signal: effect of the compound when it is incubated with bio-H3K4me2 peptide [1] | inhibition at 20 µM (JARID1B; [2]) [%] | Validation result of HTS active: effect of the compound in the JARID1B AlphaScreen demethylase assay (JARID1B) | Artifact Signal (percent) [1] [%] | Assay − Artifact Signal (percent) (JARID1B) [%] | Assay Signal (percent) (JARID1B) [%] | inhibition at 20 µM (JARID1B; [3]) [%] | Inhibitory effect (percent) (JARID1B; [2])
1 | NCCc1cc(O)c(O)cc1O [YU033940, OXIDOPAMINE HYDROCHLORIDE, reference compound] | – | 41 | – | 16.96 | 19.88 | 36.84 | – | –
2 | COc1cc(NC(C)CCCN)c2ncccc2c1 (stereo not drawn) [YU033971, PRIMAQUINE DIPHOSPHATE, reference compound] | – | 57.5 | – | −4.11 | 50.60 | 46.49 | – | –
3 | Nc1nc2nc[nH]c2c(=S)[nH]1 [YU034024, THIOGUANINE, reference compound] | – | – | – | 0.37 | 36.52 | 36.89 | 52.2 | –
4 | O=C([O-])c1ccccc1-c1c2cc(Br)c(=O)cc-2oc2[c]([Hg][OH])c([O-])c(Br)cc12 [YU034068, MERBROMIN, reference compound] | −1.81 | – | 3.43 | – | – | – | – | 99.27%
5 | O=c1c(O)c(-c2ccc(O)c(O)c2)oc2cc(O)cc(O)c12 [YU034090, QUERCETIN, reference compound] | 58.14 | – | 62.82 | – | – | – | – | 80.17%
6 | C/C1=C2/[N-][C@H]([C@H](CC(N)=O)[C@@]2(C)CCC(=O)NC[C@@H](C)OP(=O)([O-])O[C@H]2[C@@H](O)[C@@H](n3cnc4cc(C)c(C)cc43)O[C@@H]2CO)[C@]2(C)N=C(/C(C)=C3N=C(/C=C4N=C1[C@@H](CCC(N)=O)C\4(C)C)[C@@H](CCC(N)=O)[C@]\3(C)CC(N)=O)[C@@H](CCC(N)=O)[C@]2(C)CC(N)=O.[Co] [YU034137, COBALAMINE, reference compound] | – | – | – | 1.27 | 28.34 | 27.06 | – | 63.90%
7 | Cc1cc2c(C(C)C)c(O)c(O)c(C=O)c2c(O)c1-c1c(C)cc2c(C(C)C)c(O)c(O)c(C=O)c2c1O [YU034280, GOSSYPOL-ACETIC ACID COMPLEX, reference compound] | 64.46 | 78.2 | 54.61 | – | – | – | – | –
8 | O=c1oc2c(O)c(O)cc3c(=O)oc4c(O)c(O)cc1c4c23 [YU034320, ELLAGIC ACID, reference compound] | 31.44 | – | 37.80 | 2.37 | 9.70 | 12.08 | – | 61.25% and 40.88%
9 | O=C(O)CCCC[C@@H]1SC[C@@H]2NC(=O)N[C@@H]21 [YU034331, BIOTIN, reference compound] | 99.61 | 104 | 104.67 | – | – | – | – | –
10 | CCCCC(CC)CNC(=N)NC(=N)NCCCCCCNC(=N)NC(=N)NCC(CC)CCCC (stereo not drawn) [YU034347, ALEXIDINE HYDROCHLORIDE, reference compound] | – | 80.6 | – | 5.60 | 66.40 | 72.00 | – | –
11 | CCCCCCCCCCCCCCCC[N+](C)(C)C [YU034377, CETRIMONIUM BROMIDE, reference compound] | −6.13 | 94.2 | −6.81 | – | – | – | – | –
12 | CN(C)C(=S)SSC(=S)N(C)C [YU034426, THIRAM, reference compound] | – | 64.2 | – | 7.49 | 59.23 | 66.73 | – | –
13 | O=[N+]([O-])c1cc(O)c(O)c([N+](=O)[O-])c1 [YU034463, 3,5-DINITROCATECHOL, reference compound] | – | – | – | 11.72 | 27.05 | 38.78 | – | 49.87%
14 | NC(=O)c1ncn([C@@H]2O[C@H](CO)[C@@H](O)[C@H]2O)n1 [YU034518, RIBAVIRIN, reference compound] | – | 79.7 | – | −5.97 | 23.17 | 17.20 | – | –
15 | N.N.[Cl][Pt][Cl] [YU034538, CISPLATIN, reference compound] | – | – | – | 8.53 | 40.64 | 49.17 | – | 40.06%
16 | NNC(=O)c1ccncc1.Nc1ccc(C(=O)O)c(O)c1 [YU034557, PASINIAZID, reference compound] | – | – | – | 1.76 | 42.63 | 44.38 | – | 46.37%
17 | CC(=O)C(C)O[Si](C(C)C)(C(C)C)C(C)C (stereo not drawn) [YU035082] | – | – | – | 6.78 | 15.58 | 22.36 | 95.8 | –
18 | CNC(C(=O)N(C)OC)C(C)C (stereo not drawn) [YU035100] | – | 88 | – | 1.39 | 11.75 | 13.14 | – | –
19 | C=CCO[C@H]1[C@H](O)[C@H](OCC=C)[C@H](O)[C@@H](OCC=C)[C@@H]1O [YU035165] | – | 49.5 | – | 2.11 | 13.07 | 15.19 | – | –
20 | CCN(CC)C(=S)SSC(=S)N(CC)CC [YU035331, reference compound] | – | – | – | −3.39 | 40.15 | 36.77 | 40.5 | –
21 | C=CC1=C(C(=O)O)N2C(=O)[C@@H](NC(=O)/C(=N\OCC(=O)O)c3csc(N)n3)[C@H]2SC1 [YU039791, CEFIXIME TRIHYDRATE, reference compound] | 96.65 | 105 | 104.49 | – | – | – | – | –

Further lines, with some results ahead:

Row | Artifact signal: effect of the compound when it is incubated with bio-H3K4me2 peptide [1] | inhibition at 20 µM (JARID1B; [2]) [%] | Validation result of HTS active: effect of the compound in the JARID1B AlphaScreen demethylase assay (JARID1B) | Artifact Signal (percent) [1] [%] | Assay − Artifact Signal (percent) (JARID1B) [%] | Assay Signal (percent) (JARID1B) [%] | inhibition at 20 µM (JARID1B; [3]) [%] | SMILES | Inhibitory effect (percent) (JARID1B; [2])
22 | 18.66 | 93.2 | 0.74 | – | – | – | – | COc1ccccc1OCC(O)COC(N)=O (stereo not drawn) [YU033898, METHOCARBAMOL, reference compound] | –
23 | – | 69.1 | – | −0.54 | 30.75 | 50.21 | – | C[C@](N)(Cc1ccc(O)c(O)c1)C(=O)O [YU033903, METHYLDOPA, reference compound] | –
24 | – | 58.5 | – | 1.83 | 37.97 | 39.80 | – | NC[C@H](O)c1ccc(O)c(O)c1 [YU033927, NOREPINEPHRINE, reference compound] | –
25 | – | 75.9 | – | 3.41 | 69.09 | 72.51 | – | CC(C)NNC(=O)c1ccncc1 [YU034066, IPRONIAZID SULFATE, reference compound] | –
26 | 56.96 | 51.5 | 62.51 | – | – | – | – | C=C1c2cccc(O)c2C(=O)C2=C(O)[C@]3(O)C(=O)C(C(N)=O)=C(O)[C@@H](N(C)C)[C@@H]3[C@@H](O)[C@H]12 [YU034167, METHACYCLINE HYDROCHLORIDE, reference compound] | –
27 | – | 100 | – | 53.76 | 26.51 | 80.27 | – | C[C@@](Cc1ccc(O)c(O)c1)(NN)C(=O)O [YU034292, CARBIDOPA, reference compound] | –
28 | – | 68.8 | – | 14.27 | 41.47 | 55.74 | – | N[C@@H](Cc1ccc(O)c(O)c1)C(=O)O [YU034332, LEVODOPA, reference compound] | –
29 | −2.95 | 66 | 4.23 | – | – | – | – | CN(C)CCCN1c2ccccc2Sc2ccc(C(F)(F)F)cc21 [YU034370, TRIFLUPROMAZINE HYDROCHLORIDE, reference compound] | –
30 | – | 42.1 | – | 0.57 | 32.23 | 32.80 | – | Cc1cc(N)c2ccccc2[n+]1CCCCCCCCCC[n+]1c(C)cc(N)c2ccccc21 [YU034372, DEQUALINIUM CHLORIDE, reference compound] | –
31 | −1.34 | 98.9 | 5.62 | – | – | – | – | CCC(=O)O[C@]1(C(=O)CCl)[C@@H](C)C[C@H]2[C@@H]3CCC4=CC(=O)C=C[C@]4(C)[C@@]3(F)[C@@H](O)C[C@@]21C [YU034506, CLOBETASOL PROPIONATE, reference compound] | –
32 | – | 100 | – | 80.56 | 15.48 | 96.04 | – | O=C(O[C@@H]1Cc2c(O)cc(O)cc2O[C@@H]1c1cc(O)c(O)c(O)c1)c1cc(O)c(O)c(O)c1 [YU040338, Epigallocatechin gallate, reference compound] | –
